{
  "source": "patent US8592394B2",
  "about": "“Synthetic derivatives beta glycolipids and compositions thereof for the treatment of pathologic disorders” (Enzo Therapeutics, Inc., priority 2003, dated 2013)",
  "key": {"ob/ob mice": {"system": "ob/ob mice", "test": "Fasting glucose and glucose tolerance test in ob/ob mice", "assay_type": "in vivo", "description": "Mice underwent a glucose tolerance test (GTT) on day 30 after overnight fasting. Glucose was administered orally (1.25 g per kg). Serum glucose measurements were performed on tail-vein blood every 15 min for 3 h. Glucose levels were measured by a standard glucometer.\n(§1) Therefore, five groups of male C57BL/6 Ob/Ob mice were studied. Mice (6 per group) were fed (per os) daily for 4 weeks with 15 or 45 μg of GC (groups B and C, respectively) and 15 or 45 μg of ALIB-97 (groups D and E, respectively). Control mice (Group A) were administered vehicle only."}, "fat-associated T cells": {"system": "fat-associated T cells", "test": "Flow cytometry of T cell subsets in adipose tissue, stromal vascular cells and spleen of ob/ob mice", "assay_type": "in vivo", "conditions": "45 μg per os daily 4 weeks, vs vehicle", "description": "Splenocytes and intrahepatic lymphocytes were isolated as follows: livers and spleens were kept in RPMI-1640+FCS. Then spleens were crushed through a 70 μm nylon cell strainer (Falcon) and centrifuged (1250 rpm for 7 min) for the removal of cell debris. Red blood cells were lysed with 1 ml of cold 155 mM ammonium chloride lysis buffer and centrifuged (1250 rpm for 3 min). Splenocytes were resuspended with 1 ml RPMI+FCS. Cell viability by trypan blue staining was above 90%. For intrahepatic lymphocytes, livers were crushed through a stainless mesh (size 60, Sigma) and the cell suspension was placed in a 50-ml tube for 5 min. Lymphoprep (10 ml, Ficoll, Axis-Shield PoC AS, Oslo, Norway) was placed under similar volume of cell suspension in 50-ml tubes. Tubes were centrifuged at 1800 rpm for 18 min. Cells in the interface were collected and centrifuged at 1800 rpm for 10 min, to obtain a pellet of cells depleted of hepatocytes to a final volume of 250 μl. Approximately 1×10^6 cells/mouse liver, were recovered.\nAdipose tissue (visceral fat pads) was minced and incubated in Krebs-Ringer bicarbonate buffer (3 mL/g adipose tissue) containing 10mM glucose and 2.5% bovine serum albumin, incubated with 840 U/g collagenase type I (Sigma, Rehovot, Israel)) at 37° C. for 1 hour. Cells were filtered twice through chiffon mesh (100 μm) and centrifuged 50 g for 5 min. Floating adipocytes were separated from pelleted S/V fraction. The infranatant fraction was removed and centrifuged at 200 g for five minutes to pellet the S/V cells.\nFor metabolic syndrome experiments, the following antibodies were used for flow cytometry: anti-CD4-Pacific Blue, anti-CD8-FITC, anti-IL-17-PE, anti CD25-PercP-Cy5.5 and anti FOX3p PE-Cy725 (all from eBioscience, San Diego, Calif.). Surface staining was performed by incubating cells with antibodies and anti-CD16/32 (blocks Fc, eBioscience) at 4° C. in FACS buffer containing PBS and 0.5% BSA, for 30 min. Cells were washed twice with FACS buffer, resuspended in FACS buffer, and analyzed by flow cytometry. Appropriate isotype controls were used in all experiments. Intracellular staining was performed using Foxp3 staining buffer kit (eBioscience, San Diego, Calif.). Cells were incubated with 1 ml Fixation/Permeabilization solution for 50 min, washed twice with Permeabilization buffer and incubated with anti-Foxp3 Ab for 50 min. Cells were then washed twice with Permeabilization buffer and resuspended with FACS buffer. Analysis was performed using a FACSCalibur instrument (Becton Dickinson, San Jose, Calif.) with FCS express V.3 software (DeNovo software, Los Angeles, Calif.).\nas §1"}, "TNF-α": {"system": "TNF-α", "test": "Serum TNF-α by ELISA in ConA induced hepatitis", "assay_type": "in vivo, mice", "conditions": "intraperitoneal", "description": "(§2) Serum levels of IFN-γ, TGF-β, TNF-α IL-2, IL-4, IL-6, IL-10 and IL-12 were determined by “sandwich” ELISA, using commercial kits (Quantikine, R&D Systems, Minneapolis, Minn., USA). Serum insulin was also determined by “sandwich” ELISA too, using the commercial kit of Mercodia AB (Uppsala, Sweden) according to the manufacturer's instructions."}, "IL-6": {"system": "IL-6", "test": "Serum IL-6 by ELISA in ConA induced hepatitis", "assay_type": "in vivo, mice", "conditions": "intraperitoneal", "description": "as §2"}, "IL-4": {"system": "IL-4", "test": "Serum IL-4 by ELISA in ConA induced hepatitis", "assay_type": "in vivo, mice", "conditions": "intraperitoneal, data not shown", "description": "as §2"}, "IL-10": {"system": "IL-10", "test": "Serum IL-10 by ELISA in ConA induced hepatitis", "assay_type": "in vivo, mice", "conditions": "for serum IL-10: intraperitoneal", "description": "as §2"}, "AKT": {"system": "AKT", "test": "Western blot of liver extracts of ob/ob mice: AKT activation", "assay_type": "in vivo", "conditions": "per os daily 4 weeks, 15 μg (group D)", "description": "For analysis of whole tissue lysates, snap-frozen liver pieces were homogenized in 0.75 ml of ice-cold PBS and centrifuged at 4° C. for 5 min in 2000 rpm. Pellets were lysed with 50 mM beta glycerophosphate, 1.5 mM EGTA, PH 7.3, 1 mM EDTA, PH 7.3, 1 mM DTT, 0.1 mM Sodium vanadate, 1% NP-40, and cocktails of protease and phosphatase (Sigma, Rehovot, Israel).\n(§3) Lysates were centrifuged twice at 4° C. for 10 minutes in 14000 rpm. Equivalent amounts of lysates (15 μg/lane), determined by Bradford assay (Bio-Rad, Rehovot, Israel), were separated by sodium dodecyl sulfate polyacrylamide gel electrophoresis (SDS-PAGE) and transferred to nitrocellulose membranes.\nFor metabolic syndrome experiments, proteins were detected with JNK-2, Phospho JNK (Thr183/Tyr185), Akt and phospho Akt (Ser 473) antibodies (Cell Signaling Technologies, MA). β-actin (abcam, UK) was used as the loading control.\n(§4) Blots were developed with horseradish peroxidase-conjugated secondary antibodies (Jackson Laboratories Bar Harbor, Me.) and Western Blot-Luminol Reagent (Santa Cruz Biotechnology, CA, USA). Cell counting and western Blot quantification was performed using total Lab (Phoretix, USA) software.\nTherefore, five groups of male C57BL/6 Ob/Ob mice were studied. […]"}, "STAT6": {"system": "STAT6", "test": "Immunoblot of liver lysates: STAT6", "assay_type": "in vivo, mice", "conditions": "IP", "description": "(§5) For ConA induced hepatitis experiments spleen and liver lysates were lysed in RIPA buffer containing 50 mM Tris, pH 7.4, 1% NP-40, 150 mM NaCl, 0.1% SDS, 0.5% sodium deoxycholate and protease inhibitors (5 μg/ml, Sigma), with protease and phosphatase (Sigma, Rehovot, Israel).\nas §3\n(§6) For ConA induced hepatitis experiments proteins were detected with phospho-specific STAT1-Tyr701, STAT6-Tyr641, STAT1, and STAT6 antibodies from Cell Signaling. β-actin (abcam, UK) was used as a loading control.\nas §4"}, "STAT1": {"system": "STAT1", "test": "Immunoblot of liver lysates: STAT1 phosphorylation", "assay_type": "in vivo, mice", "conditions": "IP", "description": "as §5, §3, §6, §4"}},
  "data": [
    {"compound": "CCCCCCCCCCCCCC=CC(O)C(CO[C@@H]1OC(CO)[C@@H](O)C(O)C1O)NC(=S)NC12CC3CC(CC(C3)C1)C2", "note": "(stereo in doubt) [ALIB-97, N-adamantyl-N′-glucosylsphingosine thiourea]", "values": [
      {"measurement": "time at which the decrease in glucose levels (GTT, relative to time 0) reached statistical significance", "setting": "ob/ob mice; day 30, 15 μg per os daily", "value": 90, "unit": "min"},
      {"measurement": "time at which the decrease in glucose levels (GTT, relative to time 0) reached statistical significance", "setting": "ob/ob mice; day 30, 45 μg per os daily", "value": 60, "unit": "min"},
      {"measurement": "CD4+CD25+FOXP3+ cells, ADIPOCYTES", "setting": "fat-associated T cells", "value": "↑↑ (↓/↑ and ↓↓/↑↑-p≦0.05 and p≦0.01 respectively)"},
      {"measurement": "CD4+CD25+IL17+ cells, SVC", "setting": "fat-associated T cells", "value": "↑ (↓/↑ and ↓↓/↑↑-p≦0.05 and p≦0.01 respectively)"},
      {"measurement": "CD4+FOXP3+ cells, SPLEEN", "setting": "fat-associated T cells", "value": "↓ (↓/↑ and ↓↓/↑↑-p≦0.05 and p≦0.01 respectively)"},
      {"measurement": "CD4+FOXP3+IL17+ cells, ADIPOCYTES", "setting": "fat-associated T cells", "value": "↓ (↓/↑ and ↓↓/↑↑-p≦0.05 and p≦0.01 respectively)"},
      {"measurement": "CD4+IL17+ cells, ADIPOCYTES", "setting": "fat-associated T cells", "value": "↓ (↓/↑ and ↓↓/↑↑-p≦0.05 and p≦0.01 respectively)"},
      {"measurement": "CD8+CD25+ cells, ADIPOCYTES", "setting": "fat-associated T cells", "value": "↓ (↓/↑ and ↓↓/↑↑-p≦0.05 and p≦0.01 respectively)"},
      {"measurement": "CD8+CD25+FOXP3+ cells, SPLEEN", "setting": "fat-associated T cells", "value": "↑↑ (↓/↑ and ↓↓/↑↑-p≦0.05 and p≦0.01 respectively)"},
      {"measurement": "CD8+CD25+FOXP3+ cells, SVC", "setting": "fat-associated T cells", "value": "↓ (↓/↑ and ↓↓/↑↑-p≦0.05 and p≦0.01 respectively)"},
      {"measurement": "CD8+CD25+FOXP3+IL17+ cells, ADIPOCYTES", "setting": "fat-associated T cells", "value": "↓ (↓/↑ and ↓↓/↑↑-p≦0.05 and p≦0.01 respectively)"},
      {"measurement": "CD8+CD25+FOXP3+IL17+ cells, SPLEEN", "setting": "fat-associated T cells", "value": "↑ (↓/↑ and ↓↓/↑↑-p≦0.05 and p≦0.01 respectively)"},
      {"measurement": "CD8+CD25+IL17+ cells, ADIPOCYTES", "setting": "fat-associated T cells", "value": "↑ (↓/↑ and ↓↓/↑↑-p≦0.05 and p≦0.01 respectively)"},
      {"measurement": "CD8+CD25+IL17+ cells, SVC", "setting": "fat-associated T cells", "value": "↑ (↓/↑ and ↓↓/↑↑-p≦0.05 and p≦0.01 respectively)"},
      {"measurement": "CD8+FOXP3+ cells, SPLEEN", "setting": "fat-associated T cells", "value": "↑↑ (↓/↑ and ↓↓/↑↑-p≦0.05 and p≦0.01 respectively)"},
      {"measurement": "CD8+FOXP3+IL17 cells, ADIPOCYTES", "setting": "fat-associated T cells", "value": "↓↓ (↓/↑ and ↓↓/↑↑-p≦0.05 and p≦0.01 respectively)"},
      {"measurement": "CD8+IL17+ cells, ADIPOCYTES", "setting": "fat-associated T cells", "value": "↓ (↓/↑ and ↓↓/↑↑-p≦0.05 and p≦0.01 respectively)"},
      {"measurement": "CD25+FOXP3+ cells, SPLEEN", "setting": "fat-associated T cells", "value": "↓ (↓/↑ and ↓↓/↑↑-p≦0.05 and p≦0.01 respectively)"},
      {"measurement": "serum TNF-α secretion", "setting": "TNF-α; B6 mice", "value": "modest effect"},
      {"measurement": "serum TNF-α levels", "setting": "TNF-α; CD1d−/− KO mice", "value": "decreased"},
      {"measurement": "serum TNF-α levels", "setting": "TNF-α; Jα18−/− KO mice", "value": "decreased"},
      {"measurement": "serum IL-6 levels", "setting": "IL-6; B6 mice", "value": "reduced"},
      {"measurement": "serum IL-6 levels", "setting": "IL-6; Jα18−/− mice", "value": "reduced"},
      {"measurement": "serum levels of IL-4", "setting": "IL-4", "value": "did not affect"},
      {"measurement": "serum IL-10", "setting": "IL-10; B6 mice", "value": "increased"},
      {"measurement": "IL-10 serum levels", "setting": "IL-10; B6 mice, oral administration, after 20 hours", "value": "Decreased"},
      {"measurement": "serum IL-10", "setting": "IL-10; CD1d−/− mice", "value": "increased"},
      {"measurement": "serum IL-10", "setting": "IL-10; Jα18−/− mice", "value": "increased"},
      {"measurement": "AKT activation", "setting": "AKT", "value": "decreased"},
      {"measurement": "STAT6 expression in the liver", "setting": "STAT6; B6 mice", "value": "slightly increased"},
      {"measurement": "STAT6 expression in the liver", "setting": "STAT6; CD1d−/− mice", "value": "markedly induced"},
      {"measurement": "STAT1 phosphorylation of Tyr 701 in the liver", "setting": "STAT1; B6 mice", "value": "increased"},
      {"measurement": "STAT1 phosphorylation of Tyr 701 in the liver", "setting": "STAT1; CD1d−/− mice", "value": "increased"}
    ]}
  ]
}
